The text below walks through data of patent US20090069623A1, “METHODS AND COMPOSITIONS FOR TREATMENT OR PREVENTION OF RADIATION-INDUCED FIBROSIS” (Virginia Commonwealth University Intellectual Property …, priority 2007, published 2009).

What all share (type): cell-based, human
For one test, the system named is CTGF, fibronectin. Briefly: Western blot of HDF cells treated with TGF-β1 and simvastatin. The note with it: 10 ng/ml TGF-β1 plus simvastatin, three days, FIG. 10B. The protocol: Cell Culture and Treatment. Normal human fetal lung fibroblasts (HFL-1) were purchased from the American Type Culture Collection (ATCC Number: CCL-153) and cultured in Ham's F12K medium (American Type Culture Collection) supplemented with 2 mM L-glutamine adjusted to contain 1.5 g/L sodium bicarbonate and 10% fetal bovine serum. Cells were maintained in humidified 5% CO2 at 37° C. Human dermal fibroblasts (HDF), derived from the dermis of normal human adult skin, were purchased from Invitrogen, Inc. and cultured in Medium-106 (Invitrogen, Inc., Catalogue No. M-106-500) containing LSGS Kit (Invitrogen, Inc., Catalogue No. S-003-K) prior to use. […]
Harvesting Culture Media and Cell Lystates. For analysis of extracellular CTGF, fibronectin, and α-tubulin, cell culture media was collected, centrifuged to remove cellular debris, aliquoted, and frozen at −70° C. until ready for use. […]
Western blot analysis of HFL-1 whole cell proteins. […] After washing the blot, the antibodies were detected by the enhanced chemiluminescence method (PerkinElmer Life Sciences Inc.).
The separated proteins were then transferred to nitrocellulose, and Western immunoblotting was performed with antibodies specific for CTGF, fibronectin, and α-tubulin. […] As a control for protein loading, α-tubulin expression in HFL-1 cells was also determined.

The test system of test [1] is CTGF, fibronectin (FN), collagen type IV (Col IV) mRNA. Briefly: RT-PCR of mRNA expression in irradiated HFL-1 cells treated with simvastatin. The note with it: simvastatin pretreatment 6 hours, 10 Gy, 20 hours, FIG. 8A. The protocol:
For statin treatment experiments, cells were grown overnight in 35 mm plates (6-well plates were also used in some studies) to form a 75-80% confluent monolayer. The cells were then washed with PBS, and the media was changed to SFM (800 μL).
RT-PCR analysis of CTGF, COL-IV, FN and hβ2M. […] One microgram of purified total RNA was used for RT-PCR analysis using the ThermoScript RT-PCR System (Invitrogen, Inc.) according to the protocol of the manufacturer. The sequences of the forward and reverse primers are as follows: CTGF forward primer (SEQ ID NO 1) 5′-[…]-3′, CTGF reverse primer (SEQ ID NO 2) 5′-[…]-3′; COL-IV forward primer (SEQ ID NO 3) 5′-[…]-3′, COL-IV reverse primer (SEQ ID NO 4) 5′-[…]-3′; FN forward primer (SEQ ID NO 5) 5′-[…]-3′, FN reverse primer (SEQ ID NO 6) 5′-[…]-3′; hβ2M forward primer (SEQ ID NO 7) 5′-[…]-3′; hβ2M reverse primer (SEQ ID NO 8) 5′-[…]-3′. The CTGF PCR product is 242 bp in length, the COL-IV PCR product is 138 bp, the FN PCR product is 203 bp, and hβ2M PCR product is 278 bp. For PCR amplification, 25 cycles were performed for the amplification of CTGF, COL-IV, FN and hβ2M (denaturation: 94° C., 45 sec; annealing: 55° C., 45 sec; polymerization: 72° C., 1 min). Amplified products were separated by electrophoresis on a 1.0% agarose gel, and DNA was visualized by ethidium bromide staining.

The test system is the same in test [2]. Briefly: RT-PCR of TGF-β1-induced mRNA expression in HDF cells treated with simvastatin. The note with it: 10 ng/ml TGF-β1 for 20 hours, FIG. 10A. The protocol: Cell Culture and Treatment. Normal human fetal lung fibroblasts (HFL-1) were purchased from the American Type Culture Collection (ATCC Number: CCL-153) and cultured in Ham's F12K medium (American Type Culture Collection) supplemented with 2 mM L-glutamine adjusted to contain 1.5 g/L sodium bicarbonate and 10% fetal bovine serum. Cells were maintained in humidified 5% CO2 at 37° C. Human dermal fibroblasts (HDF), derived from the dermis of normal human adult skin, were purchased from Invitrogen, Inc. and cultured in Medium-106 (Invitrogen, Inc., Catalogue No. M-106-500) containing LSGS Kit (Invitrogen, Inc., Catalogue No. S-003-K) prior to use. After reaching 75-80% confluence, the medium was changed to serum free medium (SFM) for irradiation with different dose 1Gy, 2.5Gy, 5Gy, 7.5Gy and 10 Gy by using ^137Se. Alternatively, cells were treated with 5 ng/ml TGF-β1 (Sigma-Aldrich, Inc., Catalogue No. T7039) to stimulate CTGF production. The cells were then kept for 3 days in humidified 5% CO2 at 37° C. and subjected to Western immunoblot.^1 ^1What are the culture conditions (e.g., media) for M12 cells used in FIG. 3?
RT-PCR analysis of CTGF, COL-IV, FN and hβ2M. […]
The ability of statins to inhibit TGF-β1-mediated induction of CTGF, fibronectin, and collagen type IV was assessed in HDF cells. […]

`CCC(C)(C)C(=O)O[C@H]1C[C@@H](C)C=C2C=C[C@H](C)[C@H](CC[C@@H]3C[C@@H](O)CC(=O)O3)[C@H]21` [simvastatin, 2,2-dimethyl-butanoic acid(1S,3R,7S,8S,8aR)-1,2,3,7,8,8a-hexahydro-3,7-dimethyl-8-[2-[(2R,4R)-tetrahydro-4-hydroxy-6-oxo-2H-pyran-2-yl]ethyl]-1-naphthalenylester]: the fibronectin protein expression result in the test on CTGF, fibronectin was “decrease in protein expression of fibronectin”. Moreover, the “expression of CTGF, FN, and Col-IV mRNA” value in test [1] was “decrease in the expression of CTGF, FN, and Col-IV mRNA”. Besides, the “CTGF, FN, and Col IV mRNA expression” value was “reduction in CTGF, FN, and Col IV mRNA expression” in test [2] (0.1 μM simvastatin); “reduction in CTGF, FN, and Col IV mRNA expression became more pronounced” in test [2] (increasing concentration of simvastatin).
